# Patent US20240158392A1 (Janssen Biotech, Inc., priority 2021, published 2024)
# Target: SIK2 (Homo sapiens, UniProt Q9H0K1)
# Assay: SIK2 Enzymatic Assay High Version 2 (High ATP)
# Assay type: biochemical
# Conditions: not given
# Procedure, shortened: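 At room temperature, enzyme (6 nM, 2× final) was preincubated with compound for 30 min, then 6 mM ATP and 400 μM HDAC5tide (both 2× final) were added for 2 h. ADP formed was measured by ADP-Glo Max (2 h reagent, 1 h detection) using luminescence.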
# Chain of SIK2 (Q9H0K1 whole entry, species assumed): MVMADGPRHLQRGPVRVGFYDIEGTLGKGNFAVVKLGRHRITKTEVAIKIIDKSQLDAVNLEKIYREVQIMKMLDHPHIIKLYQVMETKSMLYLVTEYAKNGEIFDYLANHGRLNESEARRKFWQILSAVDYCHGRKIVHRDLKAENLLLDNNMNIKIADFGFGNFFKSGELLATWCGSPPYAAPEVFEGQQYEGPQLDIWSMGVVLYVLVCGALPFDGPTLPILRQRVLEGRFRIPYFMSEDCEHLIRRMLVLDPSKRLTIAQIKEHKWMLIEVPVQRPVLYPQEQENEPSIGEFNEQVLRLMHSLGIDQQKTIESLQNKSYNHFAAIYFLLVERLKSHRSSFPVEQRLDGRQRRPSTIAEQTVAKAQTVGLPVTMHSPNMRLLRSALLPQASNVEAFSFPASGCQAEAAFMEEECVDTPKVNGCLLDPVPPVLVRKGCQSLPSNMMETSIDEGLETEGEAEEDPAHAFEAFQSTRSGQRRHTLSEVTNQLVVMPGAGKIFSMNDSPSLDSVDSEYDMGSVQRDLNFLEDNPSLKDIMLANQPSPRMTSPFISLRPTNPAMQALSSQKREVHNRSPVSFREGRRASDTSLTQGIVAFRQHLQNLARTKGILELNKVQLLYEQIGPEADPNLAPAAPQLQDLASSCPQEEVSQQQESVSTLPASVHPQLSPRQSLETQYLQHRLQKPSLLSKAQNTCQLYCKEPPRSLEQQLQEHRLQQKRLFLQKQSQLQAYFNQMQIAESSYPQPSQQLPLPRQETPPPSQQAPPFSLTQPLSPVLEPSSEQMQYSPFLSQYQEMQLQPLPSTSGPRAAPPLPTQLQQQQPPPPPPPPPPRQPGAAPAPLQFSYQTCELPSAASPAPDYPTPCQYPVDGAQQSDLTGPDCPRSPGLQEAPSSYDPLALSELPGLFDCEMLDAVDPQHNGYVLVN
row,Structure (SMILES),IC50 [µM]
1,"CCN1[C@@H]2COC[C@H]1C[C@@H](Oc1cnc(C)cc1-c1ccn3nc(Nc4ccc(C(=O)NC)cn4)cc3c1)C2 [Example 530, 6-[[5-[5-[[(1S,5R)-9-ethyl-3-oxa-9-azabicyclo[3.3.1]nonan-7-yl]oxy]-2-methyl-4-pyridyl]pyrazolo[1,5-a]pyridin-2-yl]amino]-N-methyl-pyridine-3-carboxamide]",0.00236
2,"Cc1cnc(Nc2cn3cc(-c4cc(C)ncc4O[C@H]4C[C@H]5COC[C@@H](C4)N5)ncc3n2)cn1 [Example 320, 6-[2-methyl-5-[[(1S,5R)-3-oxa-9-azabicyclo[3.3.1]nonan-7-yl]oxy]-4-pyridyl]-N-(5-methylpyrazin-2-yl)imidazo[1,2-a]pyrazin-2-amine]",0.00102

# Same assay, conditions: enzyme 6 nM, 6 mM ATP and 400 μM HDAC5tide (each 2× final concentration); 30 minutes pre-incubation, 2 hours; ADP-Glo Max luminescence; read-out: SIK2 high ATP IC50 (μM) (Test Example 2)
row,Structure (SMILES),IC50 [µM]
1,"Cc1cc(-c2ccn3nc(Nc4cc(C)nc(C5CC5)n4)cc3c2)c(OCC(C)(C)C#N)cn1 [Example 310, 3-[[4-[2-[(2-cyclopropyl-6-methyl-pyrimidin-4-yl)amino]pyrazolo[1,5-a]pyridin-5-yl]-6-methyl-3-pyridyl]oxy]-2,2-dimethyl-propanenitrile]",< 0.000847
2,"Cc1cc(-c2ccn3nc(Nc4cc(C)nc(N5CCOCC5)n4)cc3c2)c(OCC(C)(C)O)cn1 [Example 286, 2-methyl-1-[[6-methyl-4-[2-[(6-methyl-2-morpholino-pyrimidin-4-yl)amino]pyrazolo[1,5-a]pyridin-5-yl]-3-pyridyl]oxy]propan-2-ol]",0.0166
3,"Cc1cc(Nc2cc3cc(-c4cc(C(F)(F)F)ncc4OCC(C)(C)C#N)ccn3n2)nc(C)n1 [Example 494, 3-[[4-[2-[(2,6-dimethylpyrimidin-4-yl)amino]pyrazolo[1,5-a]pyridin-5-yl]-6-(trifluoromethyl)-3-pyridyl]oxy]-2,2-dimethyl-propanenitrile]",0.00254
4,"Cc1cc(Nc2cc3cc(-c4cc(OCC(F)F)ncc4OCC(C)(C)C#N)ccn3n2)nn(C2CC2)c1=O [Example 737, 3-((4-(2-((1-cyclopropyl-5-methyl-6-oxo-1,6-dihydropyridazin-3-yl)amino)pyrazolo[1,5-a]pyridin-5-yl)-6-(2,2-difluoroethoxy)pyridin-3-yl)oxy)-2,2-dimethylpropanenitrile]",0.014
5,"Cc1cc(Nc2cc3cc(-c4cc(OCC#N)ncc4OCC(C)(C)C#N)ccn3n2)nc(C)n1 [Example 672, 3-[[6-(cyanomethoxy)-4-[2-[(2,6-dimethylpyrimidin-4-yl)amino]pyrazolo[1,5-a]pyridin-5-yl]-3-pyridyl]oxy]-2,2-dimethyl-propanenitrile]",0.004
6,"Cc1cc(-c2ccn3nc(Nc4cc(C)c(=O)n(C)n4)cc3c2)c(OCC(C)(C)O)cn1 [Example 209, 6-[[5-[5-(2-hydroxy-2-methyl-propoxy)-2-methyl-4-pyridyl]pyrazolo[1,5-a]pyridin-2-yl]amino]-2,4-dimethyl-pyridazin-3-one]",0.0171
7,"CC(C)(C#N)COc1cnc(OC(F)F)cc1-c1ccn2nc(Nc3ccc4c(n3)CNCC4)cc2c1 [Example 719, 3-[[6-(difluoromethoxy)-4-[2-(5,6,7,8-tetrahydro-1,7-naphthyridin-2-ylamino)pyrazolo[1,5-a]pyridin-5-yl]-3-pyridyl]oxy]-2,2-dimethyl-propanenitrile]",0.0216
8,"CC(C)(C#N)COc1cnc(OC(F)F)cc1-c1ccn2nc(Nc3cccnn3)cc2c1 [Example 708, 3-[[6-(difluoromethoxy)-4-[2-(pyridazin-3-ylamino)pyrazolo[1,5-a]pyridin-5-yl]-3-pyridyl]oxy]-2,2-dimethyl-propanenitrile]",0.00591
9,"Cc1cc(-c2ccn3nc(Nc4cc(C)nc(C)n4)cc3c2)c(OCC(C)(C)NS(C)(=O)=O)cn1 [Example 361, N-[2-[[4-[2-[(2,6-dimethylpyrimidin-4-yl)amino]pyrazolo[1,5-a]pyridin-5-yl]-6-methyl-3-pyridyl]oxy]-1,1-dimethyl-ethyl]methanesulfonamide]",0.00703
